Reference: patent publication US10202371B2, “Oxazolidin-2-one-pyrimidine derivatives and the use thereof as phosphatidylinositol-3-kinase inhibitors” (Novartis AG, priority 2012, dated 2019)

Key:
[1] = target: PI3Kgamma (Homo sapiens (Human), UniProt P48736); assay: Biochemical assay PI3Kgamma (Adapta TR-FRET); conditions: read-out: PI3Kg/IC50
Excerpt: The TR-FRET Adapta™ Universal Kinase Assay Kit was purchased from Invitrogen
Corporation (Carlsbad/CA, USA) (Cat. No. PV5099). The kit contains the following reagents: Adapta Eu-anti-ADP Antibody (Europium labeled anti-ADP antibody in HEPES buffered saline, Cat. No. PV5097), Alexa Fluor® 647-labeled ADP tracer (Alexa Fluor® 647-labeled ADP tracer in HEPES buffered saline, Cat. No. PV5098), proprietary TR-FRET dilution buffer pH 7.5 (Cat. No. PV3574).
PIK3CD substrate Phosphatidylinositol was obtained from Invitrogen (vesicules consisting of 2 mM PI in 50 mM HEPES pH7.5; Cat. No. PV5371).
Time-Resolved Fluorescence Resonance Energy Transfer (TR-FRET) is a technology based on energy transfer between two adjacent dyes, from an excited electron in one dye (the donor) to an electron of an adjacent dye (the acceptor) through resonance, then released as a photon. This energy transfer is detected by an increase in the fluorescence emission of the acceptor, and a decrease in the fluorescence emission of the donor. TR-FRET assays for protein kinases use a long-lifetime lanthanide Terbium or Europium chelates as the donor species which overcome interference from compound autofluorescence or light scatter from precipitated compounds, by introducing a delay after excitation by a flashlamp excitation source. Results are often expressed as a ratio of the intensities of the acceptor and donor fluorophores. The ratiometric nature of such a value corrects for differences in assay volumes between wells, as well as corrects for quenching effects due to colored compounds. The Adapta™ assay can be divided into two phases: a kinase reaction phase and an ADP detection phase. In the kinase reaction phase, all kinase reaction components are added to the well and the reaction is allowed to incubate for a set period of time specific for each kinase. After the reaction, a detection solution of Eu-labeled anti-ADP antibody, Alexa Fluor® 647-labeled ADP tracer, and EDTA (to stop the kinase reaction) are added to the assay well. ADP formed by the kinase reaction will displace the Alexa Fluor® 647-labeled ADP tracer from the antibody, resulting in a decrease in TR-FRET signal. In the presence of an inhibitor, the amount of ADP formed by the kinase reaction is reduced, and the resulting intact antibody-tracer interaction maintains a high TR-FRET signal. In the Adapta™ assay, the donor (Europium-anti-ADP antibody) is excited at 340 nm and will transfer its energy to the acceptor (Alexa Fluor® 647-labeled ADP tracer). The emission from the Alexa Fluor® 647 can be monitored with a filter centered at 665 nm because it is located between the emission peaks of the donor, which is measured at 615/620 nm.
50 nL of compound dilutions were dispensed onto white 384-well small volume polystyrene plate as described in section 2.2. Then 5 μL of PI3Kg and PI3Kd and lipid substrate (PI or PIP2:PS) followed by 5 μL of ATP (final assay volume 10 μL) are incubated at RT. The standard reaction buffer for the Adapta™ TR-FRET assay contained 10 mM Tris-HCl pH 7.5, 3 mM MgCl2, 50 mM NaCl, 1 mM DTT, 0.05% CHAPS. Reactions were stopped with 5 μL of a mixture of EDTA containing the Eu-labeled anti-ADP antibody and the Alexa Fluor® 647-labeled ADP tracer in TR-FRET dilution buffer (proprietary to IVG). Plates are read 15 to 60 mins later in a Synergy2 reader using an integration time of 0.4 seconds and a delay of 0.05 seconds. […] The standard compound NVP-BGT226 was used as a reference compound and included in all assay plates in the form of 16 dilution points in duplicate.
Data are analyzed using Excel fit software or Graphpad Prism. EC50 values were derived by fitting a sigmoidal dose-response curve to a plot of assay readout over inhibitor concentration. All fits were performed with the program XLfit4 (ID Business Solutions, Guildford, UK). […] All fits were performed with the program XLfit4 (ID Business Solutions, Guildford, UK).

[2] = target: mTOR (TSC1-/- MEFs cells) (Mus musculus (Mouse), UniProt Q9JLN9); assay: Cellular assay mTOR, phospho-T389 S6K1 SureFire in TSC1-/- MEF cells; type: cell-based; conditions: read-out: mTOR TS6K(T389)_TSC1ko/ IC50
Excerpt: A cell based assay (384-well format) was developed for determination of compound effects on cellular mTOR activity in MEF (mouse embryo fibrobrasts) cells derived from mice lacking TSC1 (Tuberosclerosis Complex1) a potent suppressor of mTOR activity. Due to lack of TSC1, mTOR is constitutively activated resulting in permanent phoshorylation of Thr 389 of S6 kinase 1 (S6K1) which is one of the downstream targets of mTOR.
Using a SureFire Kit that enables to determine the phosphorylation of Thr389 on the S6K1 an assay was developed, validated and implemented in the Alpha-Screen format that allows the quantitative determination of phospho-T389 of S6K1 in cell lysates. […] These were in agreement with those values obtained with the biochemical mTOR ATP-binding assay enabling a quantitative comparison of potency of mTOR inhibitors.
TSC1−/− MEFs cells (Kwiatkowski, D. J., Zhang, H., Bandura, J. L., Heiberger, K. M., Glogauer, M., el-Hashemite, N., and Onda, H. (2002) Hum. Mol. Genet. 11, 525-534) were cultured in DMEM high glucose medium supplemented with 10% FBS (Invitrogen), 2 mM Glutamine and 1% (w/v) Penicillin/Streptomycin at 37° C., 5% CO2.
The SureFire kit for determination of P70S6kinase phosphorylation was purchased from Perkin Elmer (p70S6K p-T389, #TGR70S50K) and the assay was performed according to the instructions of the supplier and according to the generic method for SureFire assays. Shortly, 5 μL cell lysate per well were transferred to 384-well white proxy-plates (for luminescent readout) and mixed with […] and […] (final volume: 12 μL). After 3 h incubation in the dark at RT luminescence was read with the Envision Reader (Perkin Elmer). Untreated cells were used as control (high control) and cells treated with 3 μM BEZ235 were used as low control. The assay window between the signals obtained for the high and the low controls were defined as 100% and compound effects were expressed as percent inhibition. IC50 values were calculated from the dose response curves by graphical extrapolation.

Chain of PI3Kgamma (P48736 whole entry, species assumed): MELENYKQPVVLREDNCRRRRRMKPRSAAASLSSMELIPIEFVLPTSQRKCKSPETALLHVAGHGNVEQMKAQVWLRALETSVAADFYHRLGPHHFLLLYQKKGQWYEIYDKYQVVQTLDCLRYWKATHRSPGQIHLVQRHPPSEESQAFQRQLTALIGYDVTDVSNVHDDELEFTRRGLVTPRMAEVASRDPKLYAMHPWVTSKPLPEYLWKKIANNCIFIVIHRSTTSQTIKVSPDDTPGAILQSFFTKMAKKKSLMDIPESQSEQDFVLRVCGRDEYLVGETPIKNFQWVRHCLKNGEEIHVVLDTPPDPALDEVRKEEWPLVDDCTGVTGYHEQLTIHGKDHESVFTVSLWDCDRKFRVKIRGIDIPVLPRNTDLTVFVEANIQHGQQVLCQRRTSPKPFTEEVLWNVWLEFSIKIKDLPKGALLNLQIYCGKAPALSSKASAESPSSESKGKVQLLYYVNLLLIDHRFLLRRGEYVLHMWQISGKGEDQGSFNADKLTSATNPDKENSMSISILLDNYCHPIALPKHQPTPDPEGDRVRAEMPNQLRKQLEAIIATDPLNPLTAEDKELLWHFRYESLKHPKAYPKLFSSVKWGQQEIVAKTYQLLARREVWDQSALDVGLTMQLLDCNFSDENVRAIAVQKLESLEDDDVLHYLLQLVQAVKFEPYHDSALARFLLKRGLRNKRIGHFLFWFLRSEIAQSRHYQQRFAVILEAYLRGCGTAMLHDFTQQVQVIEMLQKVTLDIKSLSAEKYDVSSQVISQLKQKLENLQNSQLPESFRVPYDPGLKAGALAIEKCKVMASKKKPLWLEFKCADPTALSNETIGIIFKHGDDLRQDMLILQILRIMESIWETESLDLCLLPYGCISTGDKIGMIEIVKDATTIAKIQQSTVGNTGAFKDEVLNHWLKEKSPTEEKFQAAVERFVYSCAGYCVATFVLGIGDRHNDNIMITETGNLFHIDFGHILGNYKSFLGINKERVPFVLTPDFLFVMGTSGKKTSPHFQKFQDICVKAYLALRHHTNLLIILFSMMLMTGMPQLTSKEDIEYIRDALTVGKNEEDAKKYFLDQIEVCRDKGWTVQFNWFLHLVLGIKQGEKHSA

| Structure (SMILES) | IC50 [1] [nM] | IC50 [2] [nM] |
| --- | --- | --- |
| CC[C@H]1[C@H](c2ccc(OC)cc2)OC(=O)N1c1cc(-c2cnc(N)nc2C(F)(F)F)nc(N2CCOCC2)n1 (relative stereo) [Example 2, (4S*,5S*)-3-(2′-amino-2-morpholino-4′-(trifluoromethyl)-[4,5′-bipyrimidin]-6-yl)-4-ethyl-5-(4-methoxyphenyl)oxazolidin-2-one] | 5800 | – |
| C[C@H]1[C@H](c2nccs2)OC(=O)N1c1cc(-c2cnc(N)nc2C(F)(F)F)nc(N2CCOCC2)n1 [Example 1, (4S,5R)-3-(2′-Amino-2-morpholin-4-yl-4′-trifluoromethyl-[4,5′]bipyrimidinyl-6-yl)-4-methyl-5-thiazol-2-yl-oxazolidin-2-one] | 92 | 243 |
| COc1ccc([C@@H]2OC(=O)N(c3cc(-c4cnc(N)nc4C(F)(F)F)nc(N4CCOCC4)n3)[C@H]2CO)cc1 [Example 3, (4S,5S)-3-(2′-Amino-2-morpholino-4′-(trifluoromethyl)-[4,5′-bipyrimidin]-6-yl)-4-(hydroxymethyl)-5-(4-methoxyphenyl)oxazolidin-2-one] | 110 | 159 |
| C[C@H]1[C@H](c2ccccc2)OC(=O)N1c1cc(-c2cnc(N)nc2C(F)(F)F)nc(N2CCOCC2)n1 [Example 5] | 3500 | 371 |
| CC[C@H]1[C@H](c2nccs2)OC(=O)N1c1cc(-c2cnc(N)nc2C(F)(F)F)nc(N2CCOCC2)n1 [Example 7] | 3000 | – |
| CCC1C(c2cccnc2)OC(=O)N1c1cc(-c2cnc(N)nc2C(F)(F)F)nc(N2CCOCC2)n1 (centres unmarked) [Example 8] | 580 | – |
| CC1C(c2cccnc2)OC(=O)N1c1cc(-c2cnc(N)nc2C(F)(F)F)nc(N2CCOCC2)n1 (centres unmarked) [Example 9] | 230 | – |
| Nc1ncc(-c2cc(N3C(=O)O[C@@H](c4ccccc4)[C@@H]3CO)nc(N3CCOCC3)n2)c(C(F)(F)F)n1 [Example 10] | 343 | 221 |
| C[C@H]1[C@@H](c2nccs2)OC(=O)N1c1cc(-c2cnc(N)nc2C(F)(F)F)nc(N2CCOCC2)n1 [Example 11] | 102 | 747 |
| COCCOc1ccc([C@@H]2OC(=O)N(c3cc(-c4cnc(N)nc4C(F)(F)F)nc(N4CCOCC4)n3)[C@H]2CO)cc1 [Example 12] | 135 | 274 |
| Nc1ncc(-c2cc(N3C(=O)O[C@@H](c4ccc(OCCO)cc4)[C@@H]3CO)nc(N3CCOCC3)n2)c(C(F)(F)F)n1 [Example 13] | 100 | 1070 |
| Nc1ncc(-c2cc(N3C(=O)O[C@@H](c4ccc(OCCCO)cc4)[C@@H]3CO)nc(N3CCOCC3)n2)c(C(F)(F)F)n1 [Example 14] | 27 | 724 |
